row,melting point,Structure (SMILES)
1,122 to 123 °C,"O=C(Nc1ccc(Oc2ccccc2)cc1)N1CCN(c2nccc3ccccc23)CC1 [Compound 422, 4-(1-Isoquinolyl)-N-(4-phenoxyphenyl)-1-piperazinecarboxamide]"
2,165 to 167 °C,"COc1cc2nncc(N3CCN(C(=O)Nc4ccc(Oc5ccccc5)cc4)CC3)c2cc1OC [Compound 426, 4-(6,7-Dimethoxy-4-cinnolinyl)-N-(4-phenoxyphenyl)-1-piperazinecarboxamide]"
3,110 to 113 °C,"S=C(NCc1cccnc1)N1CCN(c2ncnc3cc4c(cc23)OCCO4)CC1 [Compound 375, 4-(6,7-Ethylenedioxy-4-quinazolinyl)-N-(3-picolyl)-1-piperazinethiocarboxamide]"
4,105 to 108 °C,"O=C(Nc1ccc(Oc2ccccc2)cc1)N1CCN(c2ncnc3cc4ccccc4cc23)CC1 [Compound 363, 4-(4-Benzo[g]quinazolinyl)-N-(4-phenoxyphenyl)-1-piperazinecarboxamide]"
5,267 to 269 °C,"CC(C)c1ccc(NC(=O)N2CCN(c3ncnc4c(I)cc(I)cc34)CC2)cc1 [Compound 379, 4-(6,8-Diiodo-4-quinazolinyl)-N-(4-isopropylphenyl)-1-piperazinecarboxamide]"
6,125 to 128 °C,"CCn1c(=O)n(CC)c2cc3c(N4CCN(C(=O)Nc5ccc(Oc6ccccc6)cc5)CC4)nncc3cc21 [Compound 419, 4-(1,3-Diethyl-1,3-dihydro-2-oxo-2H-imidazo[4,5-g]phthalazin-5-yl)-N-(4-phenoxyphenyl)-1-piperazinecarboxamide]"
7,189 to 190 °C,"COc1ccc2c(N3CCN(C(=O)Nc4ccc(Oc5ccccc5)cc4)CC3)ncnc2c1OC [Compound 383, 4-(7,8-Dimethoxy-4-quinazolinyl)-N-(4-phenoxyphenyl)-1-piperazinecarboxamide]"
8,145 to 146 °C,"O=C(Nc1ccc(Oc2ccccc2)cc1)N1CCN(c2ccnc3ccccc23)CC1 [Compound 394, N-(4-Phenoxyphenyl)-4-(4-quinolyl)-1-piperazinecarboxamide]"
9,173 to 174 °C,"S=C(NCc1ccccc1)N1CCN(c2ccnc3ccc(Cl)cc23)CC1 [Compound 400, N-Benzyl-4-(6-chloro-4-quinolyl)-1-piperazinethiocarboxamide]"

# The remaining lines, values behind:
row,Structure (SMILES),melting point
1,"COc1cc2ncnc(N3CCN(C(=O)NCc4ccccc4)CC3)c2cc1OC [Compound 3, N-Benzyl-4-(6,7-dimethoxy-4-quinazolinyl)-1-piperazinecarboxamide]",167 to 168 °C
2,"CCOc1ccc(CNC(=O)N2CCN(c3ncnc4cc(OC)c(OC)cc34)CC2)cc1 [Compound 200, 4-(6,7-Dimethoxy-4-quinazolinyl)-N-(4-ethoxybenzyl)-1-piperazinecarboxamide]",176 to 177 °C
3,"CCOc1cc2ncnc(N3CCN(C(=S)NCc4cccnc4)CC3)c2cc1OC [Compound 338, 4-(7-Ethoxy-6-methoxy-4-quinazolinyl)-N-(3-picolyl)-1-piperazinethiocarboxamide]",169 to 170 °C
4,"COc1cc2ncnc(N3CCN(C(=O)NCc4cccs4)CC3)c2cc1OC [Compound 259, 4-(6,7-Dimethoxy-4-quinazolinyl)-N-(2-thienylmethyl)-1-piperazinecarboxamide]",168 to 170 °C
5,"CCOc1cc2ncnc(N3CCN(C(=S)NCc4ccccc4)CC3)c2cc1OCC [Compound 353, N-Benzyl-4-(6,7-diethoxy-4-quinazolinyl)-1-piperazinethiocarboxamide]",134 to 136 °C
6,"COC(=O)c1sccc1NC(=S)N1CCN(c2ncnc3cc(OC)c(OC)cc23)CC1 [Compound 260, 4-(6,7-Dimethoxy-4-quinazolinyl)-N-(2-methoxycarbonyl-3-thienyl)-1-piperazinethiocarboxamide]",226 to 228 °C
7,"COc1cc2ncnc(N3CCN(C(=S)NCc4ccc(C(C)C)cc4)CC3)c2cc1OC [Compound 154, 4-(6,7-Dimethoxy-4-quinazolinyl)-N-(4-isopropylbenzyl)-1-piperazinethiocarboxamide]",178 to 179 °C
8,"COc1cc2ncnc(N3CCN(C(=S)Nc4ccc(C(C)(C)C)cc4)CC3)c2cc1OC [Compound 22, N-(4-tert-Butylphenyl)-4-(6,7-dimethoxy-4-quinazolinyl)-1-piperazinethiocarboxamide]",221 to 224 °C
9,"CCc1cccc(NC(=S)N2CCN(c3ncnc4cc(OC)c(OC)cc34)CC2)c1 [Compound 149, 4-(6,7-Dimethoxy-4-quinazolinyl)-N-(3-ethylphenyl)-1-piperazinethiocarboxamide]",195 to 197 °C
10,"O=C(Nc1ccc(Oc2ccccc2)cc1)N1CCN(c2ncnc3ccccc23)CC1 [Compound 104, N-(4-Phenoxyphenyl)-4-(4-quinazolinyl)-1-piperazinecarboxamide]",74 to 75 °C
11,"CCCCc1ccc(NC(=O)N2CCN(c3ncnc4cc(OC)c(OC)cc34)CC2)cc1 [Compound 20, N-(4-Butylphenyl)-4-(6,7-dimethoxy-4-quinazolinyl)-1-piperazinecarboxamide]",216 to 222 °C
12,"CC(=O)c1ccc(NC(=O)N2CCN(c3ncnc4ccc(F)cc34)CC2)cc1 [Compound 298, N-(4-Acetylphenyl)-4-(6-fluoro-4-quinazolinyl)-1-piperazinecarboxamide]",184 to 185 °C
13,"COc1cc2ncnc(N3CCN(C(=S)Nc4ccc(C#N)cc4)CC3)c2cc1OC [Compound 85, N-(4-Cyanophenyl)-4-(6,7-dimethoxy-4-quinazolinyl)-1-piperazinethiocarboxamide]",247 to 252 °C
14,COc1ccc2c(N3CCN(C(=S)NCc4cccnc4)CC3)ncnc2c1OC.Cl,208 to 209 °C
15,"COc1cc2ncnc(N3CCN(C(=O)Nc4cccc([N+](=O)[O-])c4)CC3)c2cc1OC [Compound 76, 4-(6,7-Dimethoxy-4-quinazolinyl)-N-(3-nitrophenyl)-1-piperazinecarboxamide]",123 to 125 °C
16,"COc1cc2ncnc(N3CCN(C(=S)Nc4ccc(C)cc4)CC3)c2cc1OC [Compound 146, 4-(6,7-Dimethoxy-4-quinazolinyl)-N-(4-tolyl)-1-piperazinethiocarboxamide]",204 to 205 °C
17,"S=C(NCc1ccccc1)N1CCN(c2ncnc3cc(Cl)ccc23)CC1 [Compound 317, N-Benzyl-4-(7-chloro-4-quinazolinyl)-1-piperazinethiocarboxamide]",70 to 71 °C
18,"COc1cc2ncnc(N3CCN(C(=O)Nc4ccc(S(C)(=O)=O)cc4)CC3)c2cc1OC [Compound 251, 4-(6,7-Dimethoxy-4-quinazolinyl)-N-(4-mesylphenyl)-1-piperazinecarboxamide]",266 to 269 °C
19,"COc1cc2ncnc(N3CCN(C(=S)Nc4cccc(Br)c4)CC3)c2cc1OC [Compound 181, N-(3-Bromophenyl)-4-(6,7-dimethoxy-4-quinazolinyl)-1-piperazinethiocarboxamide]",220 to 222 °C
20,"COc1cc2ncnc(N3CCN(C(=O)N(c4ccccc4)c4ccccc4)CC3)c2cc1OC [Compound 116, 4-(6,7-Dimethoxy-4-quinazolinyl)-N,N-diphenyl-1-piperazinecarboxamide]",196 to 197 °C
21,"COc1cc2ncnc(N3CCN(C(=S)NCc4ccco4)CC3)c2cc1OC [Compound 94, 4-(6,7-Dimethoxy-4-quinazolinyl)-N-furfuryl-1-piperazinethiocarboxamide]",189 to 190 °C

# From patent US6472391B2, “Nitrogen-containing heterocyclic compounds” (Millennium Pharmaceuticals, Inc., priority 1996, dated 2002)
